Results taken from patent US8313914B2, “Compositions and methods for modulation of cell migration” (Angstrom Pharmaceuticals, Inc., priority 2009, dated 2012).
Entries after “also recorded” stand apart in the source; their conditions may differ. No end group written: not given here.

How the values were obtained:
CD44 [1] = molecular target: T1, CD44 (Homo sapiens, UniProt P16070); experiment: Immunoprecipitation of Å6Cbio-crosslinked SKOV3 polypeptides with anti-CD44, HRP-SA blotting; type: binding; settings: SKOV3 cells, 100 μM Å6Cbiotin, BS3 crosslinking, anti-CD44 DF1485
T1 construct: endogenous in cells; host or cells: SKOV3
T1 sequence (P16070 21-742): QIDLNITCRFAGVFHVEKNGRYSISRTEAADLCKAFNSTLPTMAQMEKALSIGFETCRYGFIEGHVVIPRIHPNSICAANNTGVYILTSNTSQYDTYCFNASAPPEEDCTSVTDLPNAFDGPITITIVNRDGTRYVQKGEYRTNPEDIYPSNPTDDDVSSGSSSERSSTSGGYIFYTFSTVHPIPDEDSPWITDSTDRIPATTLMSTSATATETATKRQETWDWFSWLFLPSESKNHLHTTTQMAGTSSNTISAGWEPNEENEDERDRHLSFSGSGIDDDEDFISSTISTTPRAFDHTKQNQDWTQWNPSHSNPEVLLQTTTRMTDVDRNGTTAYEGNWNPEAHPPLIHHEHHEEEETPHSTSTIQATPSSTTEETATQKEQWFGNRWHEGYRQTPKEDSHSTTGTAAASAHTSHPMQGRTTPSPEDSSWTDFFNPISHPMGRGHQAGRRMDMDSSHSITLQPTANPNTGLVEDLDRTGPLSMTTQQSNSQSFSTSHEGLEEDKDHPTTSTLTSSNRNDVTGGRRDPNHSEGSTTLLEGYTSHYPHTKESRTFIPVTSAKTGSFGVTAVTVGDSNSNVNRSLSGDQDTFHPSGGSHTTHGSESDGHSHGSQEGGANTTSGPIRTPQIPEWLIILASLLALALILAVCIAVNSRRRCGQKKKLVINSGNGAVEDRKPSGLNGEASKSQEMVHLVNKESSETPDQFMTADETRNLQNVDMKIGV
Experimental: In FIGS. 1 and 2 SKOV3 cells were incubated with or without 100 μM Å6Cbiotin (Å6CbioXL and ConXL, respectively) for 30 min at 4° C. The cells were then crosslinked with 5 mM bis(sulfosuccinimidyl) suberate (Sulfo-DSS or BS^3) for 30 min at 4° C. and Triton X-100 lysates generated. The lysates were pre-cleared by incubating with Protein A-agarose for 2 hr at room temperature. Aliquots representing 100 μg of the cleared lysates were then incubated overnight at room temperature with 20 μL of Protein A-agarose plus 2 μg of anti-Tenascin R (TnR; E-18, Santa Cruz Biotech.), anti-Tenascin C (TnC; 300-3, Santa Cruz Biotech.), anti-CD44 (DF1485, Santa Cruz Biotech.), anti-Plexin-A1 (P1 A1; H-60, Santa Cruz Biotech.) or murine IgG1 (Sigma Chem. Co.). After washing 5 times with lysis buffer, the immunoprecipitated polypeptides were eluted from the Protein A-agarose by boiling in SDS-PAGE sample buffer. The eluted material and 2 μg aliquots of the starting material were then subjected to SDS-PAGE, transfer to PVDF membranes and blotting with chemiluminescent horseradish peroxidase (HRP)-conjugated streptavidin (HRP-SA).
In FIG. 3 SKOV3 cells were incubated with or without 100 μM Å6Cbiotin (Å6CbioXL and control, respectively) for 30 minutes at 4° C. The cells were then crosslinked with 5 mM BS3 for 30 min at 4° C. […]

SKOV3 cells [2] = experiment: Boyden chamber migration of SKOV3 cells induced by NIH3T3-CM/VEGF; type: cell-based; settings: for Effective concentration for cell migration inhibition, lower end / Effective concentration for cell migration inhibition, upper end: SKOV3 migration
Experimental: (§1) A2780 (FIG. 10a) and SKOV3 (FIG. 10b) cells were incubated with the indicated concentrations of Å6 peptide for 30 min at 37° C. Aliquots representing 6,000 cells were placed on quadruplicate, CnI-coated filters (8 μm pores) in Boyden chambers and the cells allowed to migrate overnight in response to 10 ng/ml VEGF in NIH3T3-conditioned media containing the indicated concentrations of Å6. Upon completion of migration, the apical surfaces of the membranes were wiped clean and the migrating cells on the basal surface were stained with Geimsa stain and the cells present in representative fields of the membranes counted. Data represent the averages+/−standard deviations obtained from the replicate filters. […] This provides further confirmation that CD44 is the target for the Å6 peptide.
SKOV3 cells are harvested by trypsinization and washed once with RPMI-0.5% BSA. Next, the cells are re-suspended in RPMI+0.5% BSA@6E4/mL (6000 cells/100 μL). The peptide is pre-treated with 500 μL of cells added to 500 μL peptide NASAPPEE (SEQ ID NO: 3) (2× concentration, final conc, at 100, 10, 1, 0.1, 0.01, 0.001 uM) and the mixture incubated 30 minutes at 37° C., under 5% CO2. The Boyden chamber is assembled by: Placing in the bottom chambers: 220 μL of serum/BSA free DMEM or NIH3T3CM+10 ng/ml VEGF or NIH3T3CM+10 ng/ml VEGF+peptide. Place 8 μm filters on the top of the bottom chambers. The 8 μm filters are coated with 1 mg/ml collagen I at 4° C. overnight, washed with PBS twice, air dry before use. Add 200 μL of cells with or without peptide pretreatment to the top of Boyden chamber. Note that the peptide is in both top and bottom chambers. Cells migrate overnight at 37° C., under 5% CO2 in incubator. Next, Boyden chambers are disassembled the and filters collected. The cells on the filters after collection are treated with −20° C. methanol for 3 minutes at room temperature and stained with 30% Geimsa for 7 minutes at room temperature, and washed with water twice. The filters are mounted on slides, air dried and the cells counted.
Cell numbers were obtained by counting the cells in four fields of filters using a 40× objective. The cells migrating into the bottom chambers were also counted as follows: a) 200 μL fluid in the bottom chamber was transferred to a well of 96-well plate; b) The plate was centrifuged at 1200 rpm for 5 minutes; c) 180 μL of supernatant was removed; d) The cell pellet was resuspended with the remaining 20 μL fluid and the cells counted using a hemocytometer. […] This compares favorably to the Å6 peptide which is effective between 5 μM and 100 nM.

CD44 [3] = molecular target: T1, CD44; experiment: Dimerization of CD44 in SKOV3 cells, anti-CD44 B-F24 immunoblot; type: cell-based; settings: SKOV3 cultured 20 hr with 1 or 10 μM Å6, non-reducing
Experimental: In FIG. 13 SKOV3 cells were cultured for 20 hr with no additions, 1 or 10 μM Å6 or 100 ng/ml PMA. Triton X-100 lysates were generated and further solubilized in SDS-PAGE sample buffer under non-reducing conditions. Aliquots representing 7.5 μg of cellular protein were subjected to SDS-PAGE followed by immunoblot analysis with the anti-CD44 murine monoclonal B-F24. The presence of stained higher molecular weight bands can be indicative of CD44 dimers and/or oligomers.

A2780 cells [4] = experiment: Boyden chamber chemotaxis of A2780 cells; type: cell-based; settings: 10 ng/ml VEGF in NIH3T3-conditioned media, overnight
Experimental: as §1

SKOV3 cells [5] = experiment: Adhesion of SKOV3 cells to hyaluronic acid; type: cell-based
Experimental: In FIG. 11 SKOV3 cells were cultured overnight with or without 10 μM Å6 or 100 ng/ml PMA. The cells were then detached, washed and loaded with 20 μg/ml CFDA-SE for 30 min at 37° C. After washing, the cells were resuspended in PBS containing 10% FCS and triplicate aliquots representing 100,000 cells incubated for 30 min at room temperature with no additions, 1 or 10 uM Å6 or with 20 ng/ml IM7, a blocking anti-CD44 rat monoclonal antibody. The cells were then placed into microtiter wells that had been coated with 50 μl, of 1 mg/mL HA overnight and blocked for 30 min with 10% FCS. The cells were allowed to adhere at room temperature for 30 minutes after which, the wells were decanted and washed 3 times. The fluorescence in each well was assessed (excit./emiss.: 460/536 nm) and the mean fluorescence values (+/standard deviation) of the triplicate determinations calculated. […] The control experiment with IM7 (graphs on far right) indicates inhibition of SKOV3 binding to HA in the presence of this anti-CD44, which indicates a role for CD44 in binding HA.

CD44 on SKOV3 cells [6] = molecular target: T2, CD44 on SKOV3 cells (Homo sapiens, UniProt P16070); experiment: FACs analysis of anti-CD44 (DF1485) binding to SKOV3 cells in the presence of Å6; type: cell-based; settings: pre-incubation with Å6 on ice 10 or 30 min, FACS MnI
T2 construct: endogenous in cells; host or cells: SKOV3
T2 sequence (P16070 21-742): as above
Experimental: In FIG. 4 SKOV3 cells were detached from their culture flasks by brief trypsinization, washed twice with DPBS and incubated on ice with the indicated concentrations of Å6 for 10 min (exp. 1) or 30 min (exp. 2). Anti-CD44 (DF1485; Santa Cruz Biotech.) or its isotype control were then added to final concentrations of 1 μg/ml (exp. 1) or 1 and 0.5 μg/ml (exp. 2) and the cells incubated for 1 hr on ice. The cells were washed once and incubated with FITC-conjugated donkey anti-mouse IgG (H+L) for 30 minutes on ice and then subjected to FACS analysis with a Beckman Coulter Epics XL-MCL cytofluorimeter. Data analysis was performed using the Coulter Epics software. Note: Data are presented as mean fluorescence intensities (MnI) obtained with the MnI of the negative control in each experiment adjusted to <0.5 during data collection. […] Similar CD44 expression in ovarian cancer lines using different anti-CD44 antibodies is assessed in FIG. 5, for which the MnI values are summarized in FIG. 6.

B16 melanoma cells = experiment: B16 melanoma lung metastasis model; type: in vivo, C57BL/6J mice; settings: about 1×10^5 melanoma cells injected in the tail vein
Experimental: The B16 melanoma metastasis is well known in the art. A typical protocol for assessing the inhibitory effect of a compound on metastasis is described below. Such a protocol was followed to assess the effect of Å6 on metastasis.
Briefly, B16 melanoma cells can be cultured in RPMI-1640 with 10% fetal bovine serum at 37° C. in an atmosphere of 95% air and 5% CO2. C57BL/6J mice of six to eight weeks can be purchased from commercial suppliers. For the lung metastasis model, about 1×10^5 melanoma cells suspended in 100 μl saline were injected in the tail vein in the presence or absence of Å6. Administration of the Å6 peptide inhibited the lung metastasis by 50% or more.

CD44 on SKOV3 cells [7] = molecular target: T2, CD44 on SKOV3 cells; experiment: FACs analysis of IM7 binding to SKOV3 cells in the presence of Å6; type: cell-based; settings: IM7 1 μg/ml, 4° C.
Experimental: In FIGS. 14a and 14b SKOV3 cells were incubated with the indicated concentrations of Å6 for 30 min at 4° C. IM7 (1 μg/ml) was then added and allowed to bind for 30 min at 4° C., after which the cells were washed and incubated with FITC-donkey anti-rat IgG for 30 min at 4° C. The cells were washed once and then subjected to FACs analysis.

A2780 cells [8] = experiment: Adhesion of A2780 cells to hyaluronic acid; type: cell-based; settings: immobilized HA; 1 or 10 μM Å6
Experimental: In FIG. 12 A2780 cells were cultured overnight with or without 10 μM Å6 or 100 ng/ml PMA. The cells were then detached, washed and loaded with 20 μg/ml CFDA-SE for 30 min at 37° C. After washing, the cells were resuspended in PBS containing 10% FCS and triplicate aliquots representing 100,000 cells incubated for 30 min at room temperature with no additions, 1 or 10 μM Å6 or with 20 ng/ml IM7, a blocking anti-CD44 rat monoclonal antibody. The cells were then placed into microtiter wells that had been coated with 50 ul of 1 mg/ml HA overnight and blocked for 30 min with 10% FCS. The cells were allowed to adhere at room temperature for 30 min after which, the wells were decanted and washed 3 times. The fluorescence in each well was assessed (excit./emiss.: 460/536 nm) and the mean fluorescence values (+/standard deviation) of the triplicate determinations calculated.

CD44 [9] = molecular target: T1, CD44; experiment: Anti-CD44 (DF1485) immunoblot analysis of Å6CbioXL polypeptides and Å6-BSA; type: binding; settings: SKOV3 lysates
Experimental: In FIG. 7 30 μg aliquots of Å6CbioXL and control (ConXL) SKOV3 lysates, as well as 2 μg aliquots of Å6-crosslinked BSA (Å6-BSA) and BSA, were subjected to immunoblot analysis using the DF1485 anti-CD44 antibody (Santa Cruz Biotech). The DF1485 blots were stained with HRP-conjugated sheep anti-Mouse IgG; heavy and light chain specific (GE Health Sciences). The rabbit anti-Å6 blot was stained with HRP-conjugated donkey anti-rabbit IgG; heavy and light chain specific (Jackson Immunoresearch). Stained bands were visualized by the ECL-plus chemiluminescence reagent (GE Health Sciences) and exposure to Hyperfilm ECL film (GE). In panel 1, anti-CD44 produced bands in the Å6CbioXL (A lane) and control (C) lane. […] In addition, 2 μg aliquots of the Å6CbioXL and ConXL lysates were concurrently blotted with HRP-streptavidin to identify polypeptides labeled with Å6Cbio, and shown in panel 2. 2 μg of Å6-BSA and BSA were also blotted with Rb anti-Å6 to confirm the presence of Å6 on the Å6-BSA, as shown in the third panel of FIG. 7.

Row | Formation of higher molecular weight CD44 bands (dimers/oligomers) (CD44 [3]) | Effect on binding of anti-CD44 to CD44 (band intensity) (CD44 [9]) | Substance | Target identified by immunoprecipitation of crosslinked biotinylated peptide (CD44 [1]) | Effect on migration of SKOV3 cells (SKOV3 cells [2]; 10 ng/ml VEGF in NIH3T3-conditioned media, overnight) | Effective concentration for cell migration inhibition, lower end (SKOV3 cells [2]) [nM] | Effective concentration for cell migration inhibition, upper end (SKOV3 cells [2]) [µM] | Effect on migration of A2780 cells (A2780 cells [4]) | Effect of a 10-fold increase in peptide concentration on SKOV3 binding to HA (SKOV3 cells [5]; 1 vs 10 μM Å6) | Effect on SKOV3 binding to HA (SKOV3 cells [5]; immobilized HA, 1 or 10 μM Å6, 20 ng/ml IM7) | Effect on binding of DF1485 anti-CD44 to SKOV3 cells (CD44 on SKOV3 cells [6]) | Inhibition of lung metastasis (B16 melanoma cells) [%] | Effect on IM7 antibody binding to SKOV3 cells (CD44 on SKOV3 cells [7]) | Effect on A2780 binding to HA (A2780 cells [8])
1 | higher molecular weight bands are formed |  | Ac-KPSSPPEE-Am (Ac-KPSSPPEE-NH2) [Å6] | targets CD44; also recorded: CD44 as the target | strong inhibition | 100 | 5 | essentially unaffected | little effect | enhanced | inhibits the binding of DF1485 anti-CD44 to SKOV3 cells | ≥ 50 | increase in antibody binding with increasing concentration | does not substantially modulate
2 |  |  | NASAPPEE |  |  | 1 | 100 |  |  |  |  |  |  | 
3 |  | reduces the binding of anti-CD44 to CD44 | Å6CbioXL: SKOV3 cells incubated with 100 μM Å6Cbiotin and crosslinked with BS3; lysate polypeptides labeled with Å6Cbio (KPSSPPEE; also: biotin label (Cbio) at an unstated position, BS3 crosslinked to cell polypeptides) |  |  |  |  |  |  |  |  |  |  | 
